Columns and labels:
[1] = molecular target: T1, C-X-C chemokine receptor type 1 (Homo sapiens, UniProt P25024); also: in other assays of this panel Not Active means under 50% inhibition at 10 µM
T1 sequence (P25024 whole entry): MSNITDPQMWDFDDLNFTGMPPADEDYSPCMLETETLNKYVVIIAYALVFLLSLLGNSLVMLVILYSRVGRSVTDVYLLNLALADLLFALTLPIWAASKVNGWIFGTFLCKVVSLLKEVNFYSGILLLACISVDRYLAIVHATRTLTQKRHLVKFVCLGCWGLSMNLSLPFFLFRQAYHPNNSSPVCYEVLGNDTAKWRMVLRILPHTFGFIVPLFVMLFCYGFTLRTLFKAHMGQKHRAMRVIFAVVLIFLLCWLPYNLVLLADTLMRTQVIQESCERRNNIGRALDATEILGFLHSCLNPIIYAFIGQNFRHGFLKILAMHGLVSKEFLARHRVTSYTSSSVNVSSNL

[2] = DRUGMATRIX: Glutamate, NMDA, Phencyclidine radioligand binding (ligand: [3H] TCP); assay type: cell membranes, Rattus norvegicus, Wistar, Cerebral cortex, Membrane; details: Not Active = under 50% inhibition at 10 µM
Mu-type opioid receptor = Mu-type opioid receptor (Homo sapiens, UniProt P35372); assay: DRUGMATRIX: Opiate mu (OP3, MOP) radioligand binding (ligand: [3H] Diprenorphine); assay type: cell membranes, CHO-K1, Membrane; details: cho-k1; Not Active = under 50% inhibition at 10 µM
[3] = molecular target: Matrix metalloproteinase-9 (Homo sapiens, UniProt P14780); assay type: cell-based;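 also: inhibition of isolated MMP-9 enzyme activity toward a synthetic peptide substrate, from the DrugMatrix protease screening panel; in other assays of this panel Not Active means under 50% inhibition at 10 µM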
[4] = molecular target: Protein kinase C alpha type (Homo sapiens, UniProt P17252); assay type: cell-based; details: sf9;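 also: inhibition of PKCalpha kinase activity measured in an enzyme assay with histone as the phosphorylation substrate; in other assays of this panel Not Active means under 50% inhibition at 10 µM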
Adenosine receptor A3 = molecular target: T2, Adenosine receptor A3 (Homo sapiens, UniProt P0DMS8); assay type: cell membranes, CHO-K1, Membrane; details: cho-k1;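 also: radioligand binding assay with AB-MECA serving as the labeled ligand; in other assays of this panel Not Active means under 50% inhibition at 10 µM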
T2 sequence (P0DMS8 whole entry): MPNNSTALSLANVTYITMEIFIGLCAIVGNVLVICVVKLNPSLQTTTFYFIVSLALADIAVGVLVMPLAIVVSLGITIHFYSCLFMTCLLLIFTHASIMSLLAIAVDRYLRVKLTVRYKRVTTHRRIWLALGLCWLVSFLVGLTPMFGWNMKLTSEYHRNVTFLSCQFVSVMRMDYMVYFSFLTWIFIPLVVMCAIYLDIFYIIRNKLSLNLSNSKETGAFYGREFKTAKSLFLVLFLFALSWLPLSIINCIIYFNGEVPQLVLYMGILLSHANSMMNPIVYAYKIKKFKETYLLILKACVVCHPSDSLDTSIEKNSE

Cytochrome P450 2C19 = Cytochrome P450 2C19 (Homo sapiens, UniProt P33261); details: bti-tn-5b1-4; also: in other assays of this panel Not Active means under 50% inhibition at 10 µM
[5] = molecular target: Voltage-gated inwardly rectifying potassium channel KCNH2 (Homo sapiens, UniProt Q12809); details: hek293; also: in other assays of this panel Not Active means under 50% inhibition at 10 µM
Voltage-gated inwardly rectifying potassium channel KCNH2, sequence (Q12809 whole entry): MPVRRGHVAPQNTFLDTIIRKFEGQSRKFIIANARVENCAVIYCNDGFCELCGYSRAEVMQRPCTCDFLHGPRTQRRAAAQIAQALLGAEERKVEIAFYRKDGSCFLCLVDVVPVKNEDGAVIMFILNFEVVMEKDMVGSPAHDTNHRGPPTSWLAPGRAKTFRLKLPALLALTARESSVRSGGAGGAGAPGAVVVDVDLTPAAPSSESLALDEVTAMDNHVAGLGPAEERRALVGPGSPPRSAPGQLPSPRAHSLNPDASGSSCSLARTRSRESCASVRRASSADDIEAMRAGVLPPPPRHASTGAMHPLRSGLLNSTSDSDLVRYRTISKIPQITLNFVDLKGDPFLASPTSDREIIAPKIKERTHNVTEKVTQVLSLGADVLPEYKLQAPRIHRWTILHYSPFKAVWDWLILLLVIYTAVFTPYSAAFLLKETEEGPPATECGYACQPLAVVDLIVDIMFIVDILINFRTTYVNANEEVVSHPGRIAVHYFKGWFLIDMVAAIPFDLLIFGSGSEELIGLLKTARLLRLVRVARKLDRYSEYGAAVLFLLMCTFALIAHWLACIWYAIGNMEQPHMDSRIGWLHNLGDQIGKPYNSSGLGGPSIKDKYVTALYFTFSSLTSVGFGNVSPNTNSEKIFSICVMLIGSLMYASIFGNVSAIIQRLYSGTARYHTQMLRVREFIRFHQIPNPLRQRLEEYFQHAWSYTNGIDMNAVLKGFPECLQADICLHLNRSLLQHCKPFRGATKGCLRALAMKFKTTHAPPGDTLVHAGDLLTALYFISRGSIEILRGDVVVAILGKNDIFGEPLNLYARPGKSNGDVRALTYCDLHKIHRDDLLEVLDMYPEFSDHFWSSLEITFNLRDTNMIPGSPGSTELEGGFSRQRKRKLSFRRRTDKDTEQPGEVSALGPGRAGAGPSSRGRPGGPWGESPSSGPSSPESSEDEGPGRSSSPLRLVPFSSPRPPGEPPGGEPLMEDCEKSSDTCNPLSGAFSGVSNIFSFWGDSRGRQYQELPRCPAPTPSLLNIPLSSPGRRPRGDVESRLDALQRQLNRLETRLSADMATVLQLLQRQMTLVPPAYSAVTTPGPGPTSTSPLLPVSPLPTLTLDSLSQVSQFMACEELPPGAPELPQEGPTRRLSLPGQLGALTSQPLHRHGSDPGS

Mu-type opioid receptor, sequence (P35372 whole entry): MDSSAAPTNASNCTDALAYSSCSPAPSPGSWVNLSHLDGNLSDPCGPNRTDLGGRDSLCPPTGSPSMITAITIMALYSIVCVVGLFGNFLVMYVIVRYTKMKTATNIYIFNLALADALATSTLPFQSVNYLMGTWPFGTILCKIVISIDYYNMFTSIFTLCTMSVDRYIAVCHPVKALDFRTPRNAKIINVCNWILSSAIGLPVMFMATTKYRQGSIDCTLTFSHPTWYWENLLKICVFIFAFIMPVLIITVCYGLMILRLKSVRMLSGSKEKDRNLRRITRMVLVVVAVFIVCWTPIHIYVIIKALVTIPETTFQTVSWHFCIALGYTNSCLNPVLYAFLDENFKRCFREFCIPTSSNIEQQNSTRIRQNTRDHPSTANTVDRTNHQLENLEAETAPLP
Matrix metalloproteinase-9, sequence (P14780 whole entry): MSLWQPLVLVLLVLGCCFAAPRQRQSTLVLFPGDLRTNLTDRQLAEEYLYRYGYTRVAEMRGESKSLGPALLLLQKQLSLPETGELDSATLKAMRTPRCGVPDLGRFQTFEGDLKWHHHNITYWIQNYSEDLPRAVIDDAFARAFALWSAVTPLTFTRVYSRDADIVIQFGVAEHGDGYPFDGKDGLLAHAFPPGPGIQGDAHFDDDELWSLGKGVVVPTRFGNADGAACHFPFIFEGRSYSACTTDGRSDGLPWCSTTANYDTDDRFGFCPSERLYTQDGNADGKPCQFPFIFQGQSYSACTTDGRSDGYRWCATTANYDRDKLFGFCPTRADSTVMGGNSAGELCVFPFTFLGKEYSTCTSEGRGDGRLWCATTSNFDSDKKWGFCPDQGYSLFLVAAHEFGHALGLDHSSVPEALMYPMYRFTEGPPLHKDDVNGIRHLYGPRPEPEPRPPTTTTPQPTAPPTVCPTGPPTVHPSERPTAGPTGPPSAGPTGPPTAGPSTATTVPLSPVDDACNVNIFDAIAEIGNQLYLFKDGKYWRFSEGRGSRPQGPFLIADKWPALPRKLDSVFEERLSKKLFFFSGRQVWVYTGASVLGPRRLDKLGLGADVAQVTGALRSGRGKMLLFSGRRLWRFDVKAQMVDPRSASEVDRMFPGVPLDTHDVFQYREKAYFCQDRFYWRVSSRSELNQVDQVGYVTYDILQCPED
Cytochrome P450 2C19, sequence (P33261 whole entry): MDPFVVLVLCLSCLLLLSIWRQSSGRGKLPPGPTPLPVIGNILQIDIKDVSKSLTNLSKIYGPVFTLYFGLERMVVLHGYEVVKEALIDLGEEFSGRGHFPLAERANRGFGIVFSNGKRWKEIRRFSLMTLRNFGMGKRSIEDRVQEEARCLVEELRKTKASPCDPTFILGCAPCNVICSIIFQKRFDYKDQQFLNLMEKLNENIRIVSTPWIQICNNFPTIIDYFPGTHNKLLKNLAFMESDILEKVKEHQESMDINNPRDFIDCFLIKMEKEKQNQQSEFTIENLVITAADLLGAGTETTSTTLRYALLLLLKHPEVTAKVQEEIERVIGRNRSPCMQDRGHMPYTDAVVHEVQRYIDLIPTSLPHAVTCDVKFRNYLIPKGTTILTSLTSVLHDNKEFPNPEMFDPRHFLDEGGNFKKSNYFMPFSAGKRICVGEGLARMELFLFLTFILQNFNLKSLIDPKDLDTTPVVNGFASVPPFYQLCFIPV

O=C(OC[C@H]1O[C@@H](OC(=O)c2cc(O)c(O)c(OC(=O)c3cc(O)c(O)c(O)c3)c2)[C@H](OC(=O)c2cc(O)c(O)c(OC(=O)c3cc(O)c(O)c(O)c3)c2)[C@@H](OC(=O)c2cc(O)c(O)c(OC(=O)c3cc(O)c(O)c(O)c3)c2)[C@@H]1OC(=O)c1cc(O)c(O)c(OC(=O)c2cc(O)c(O)c(O)c2)c1)c1cc(O)c(O)c(OC(=O)c2cc(O)c(O)c(O)c2)c1 [TANNIC ACID]
Not Active: IC50 [1] | IC50 [2] | Ki [2] | IC50 (Mu-type opioid receptor) | IC50 [3] | IC50 [4] | IC50 (Adenosine receptor A3) | IC50 (Cytochrome P450 2C19) | Ki (Cytochrome P450 2C19) | IC50 [5] | Ki [5]

CC(O)C(=O)O (configuration not stated) [LACTIC ACID]
Not Active: IC50 [1] | IC50 [2] | Ki [2] | IC50 (Mu-type opioid receptor) | IC50 [3] | IC50 [4] | IC50 (Adenosine receptor A3) | IC50 (Cytochrome P450 2C19) | Ki (Cytochrome P450 2C19) | IC50 [5] | Ki [5]

Cc1ccnc(NS(=O)(=O)c2ccc(N)cc2)n1 [SULFAMERAZINE]
Not Active: IC50 [1] | IC50 [2] | Ki [2] | IC50 (Mu-type opioid receptor) | IC50 [3] | IC50 [4] | IC50 (Adenosine receptor A3) | IC50 (Cytochrome P450 2C19) | Ki (Cytochrome P450 2C19) | IC50 [5] | Ki [5]

CC(C)(C)NC[C@H](O)COc1cccc2c1CCCC2=O [LEVOBUNOLOL]
Not Active: IC50 [1] | IC50 [2] | Ki [2] | IC50 (Mu-type opioid receptor) | IC50 [3] | IC50 [4] | IC50 (Adenosine receptor A3) | IC50 (Cytochrome P450 2C19) | Ki (Cytochrome P450 2C19) | IC50 [5] | Ki [5]

CC(=O)O[C@]1(C(C)=O)CC[C@H]2[C@@H]3C[C@H](C)C4=CC(=O)CC[C@]4(C)[C@H]3CC[C@@]21C [MEDROXYPROGESTERONE ACETATE]
Not Active: IC50 [1] | IC50 [2] | Ki [2] | IC50 (Mu-type opioid receptor) | IC50 [3] | IC50 [4] | IC50 (Adenosine receptor A3) | IC50 (Cytochrome P450 2C19) | Ki (Cytochrome P450 2C19) | IC50 [5] | Ki [5]

OC[C@@H](O)[C@@H](O)[C@H](O)[C@H](O)CO [MANNITOL]
Not Active: IC50 [1] | IC50 [2] | Ki [2] | IC50 (Mu-type opioid receptor) | IC50 [3] | IC50 [4] | IC50 (Adenosine receptor A3) | IC50 (Cytochrome P450 2C19) | Ki (Cytochrome P450 2C19) | IC50 [5] | Ki [5]

O=C(c1ccccc1)c1ccc2n1CCC2C(=O)O (configuration not stated) [KETOROLAC]
Not Active: IC50 [1] | IC50 [2] | Ki [2] | IC50 (Mu-type opioid receptor) | IC50 [3] | IC50 [4] | IC50 (Adenosine receptor A3) | IC50 (Cytochrome P450 2C19) | Ki (Cytochrome P450 2C19) | IC50 [5] | Ki [5]

From ChEMBL document CHEMBL1909046, “DrugMatrix in vitro pharmacology data”
